Assay results published in the NIST ThermoML archive (doi:10.1021/je400130b).

Experiment: molar heat capacity at constant pressure
Conditions: 101.33 kPa, Crystal, Small (less than 1 g) adiabatic calorimetry

O=S(=O)([O-])[O-].[Cu+2].[Cu+2].[Cu+2].[OH-].[OH-].[OH-].[OH-] [copper(II) tetrahydroxide sulfate]
Conditions | molar heat capacity at constant pressure [J/K/mol]
144.68 K | 141.3
145.22 K | 142.14
147.87 K | 144.34
148.42 K | 144.91
150 K | 146.3
151.08 K | 147.15
151.63 K | 147.79
153.75 K | 149.17
154.85 K | 150.6
155.89 K | 151.01
158.03 K | 152.89
158.08 K | 153.14
160 K | 154.8
160.17 K | 154.93
161.31 K | 155.76
162.32 K | 156.42
164.47 K | 158.12
164.54 K | 158.38
166.62 K | 159.83
167.79 K | 161.29
168.77 K | 161.72
170 K | 162.9
170.92 K | 163.42
171.04 K | 163.63
173.08 K | 165.15
174.3 K | 166.52
175.23 K | 166.71
177.4 K | 168.6
177.57 K | 168.98
179.56 K | 169.93
180 K | 170.9
180.86 K | 171.6
181.72 K | 171.53
183.88 K | 173.5
184.14 K | 174.07
186.04 K | 174.91
187.43 K | 176.58
188.2 K | 176.89
190 K | 178.5
190.37 K | 178.59
190.73 K | 179
192.53 K | 179.84
194.03 K | 181.5
194.69 K | 181.95
196.86 K | 183.62
197.33 K | 184.05
199.04 K | 185.07
200 K | 185.9
200.64 K | 186.38
201.21 K | 186.11
203.39 K | 188.25
203.96 K | 188.7
205.57 K | 189.66
207.29 K | 191
207.76 K | 190.53
209.94 K | 192.52
210 K | 192.8
210.62 K | 193.2
212.16 K | 193.78
213.96 K | 195.29
214.35 K | 195.47
216.54 K | 197.08
217.3 K | 197.61
218.74 K | 198.53
220 K | 199.5
220.63 K | 199.85
220.93 K | 199.41
223.12 K | 200.77
223.97 K | 202.1
225.3 K | 202.74
227.29 K | 204.34
227.48 K | 203.96
229.65 K | 205.76
230 K | 206.1
230.62 K | 206.56
231.82 K | 207.32
233.94 K | 208.88
233.99 K | 208.88
236.16 K | 210.12
237.24 K | 210.9
238.32 K | 211.49
